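Dose response: 5 concentrations. Exposure: 48 h. Format: 96-well plates. Endpoint: linear interpolation; highest concentration if not reached. TGI is the concentration that stops growth completely.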
Experiments:
Assay in all cases: DTP human tumour cell line panel, 48 h
UACC-257 melanoma = system: UACC-257 melanoma
SW-620 colon = system: SW-620 colon
KM12 colon = system: KM12 colon
A498 renal = system: A498 renal
MDA-MB-231 breast = system: MDA-MB-231 breast
HCT-116 colon = system: HCT-116 colon
NCI/ADR-RES ovarian = system: NCI/ADR-RES ovarian
PC-3 prostate = system: PC-3 prostate
DU-145 prostate = system: DU-145 prostate
OVCAR-5 ovarian = system: OVCAR-5 ovarian
SN12C renal = system: SN12C renal
MDA-N = system: MDA-N

SMILES: O=C(Nc1ccccc1)c1cc2c(cc1Cl)SC(NNCCO)=NS2(=O)=O
- TGI (UACC-257 melanoma): > 100 µM
- TGI (SW-620 colon): > 100 µM
- TGI (KM12 colon): > 100 µM
- TGI (A498 renal): > 100 µM
- TGI (MDA-MB-231 breast): > 100 µM
- TGI (HCT-116 colon): > 100 µM
- TGI (NCI/ADR-RES ovarian): > 100 µM
- TGI (PC-3 prostate): > 100 µM
- TGI (DU-145 prostate): > 100 µM

SMILES: O=C(Cc1nc2ccc(C(=O)c3ccccc3)cc2[nH]c1=O)C(=O)Nc1ccc(C(F)(F)F)cc1[N+](=O)[O-]
- TGI (UACC-257 melanoma): > 100 µM
- TGI (SW-620 colon): > 100 µM
- TGI (KM12 colon): > 100 µM
- TGI (OVCAR-5 ovarian): > 100 µM
- TGI (A498 renal): > 100 µM
- TGI (HCT-116 colon): > 100 µM
- TGI (SN12C renal): > 100 µM

SMILES: S=C1NCCN1C(=S)NC1CCCCC1
- TGI (UACC-257 melanoma): 63.3 µM
- TGI (SW-620 colon): > 100 µM
- TGI (MDA-N): > 100 µM
- TGI (KM12 colon): 65.3 µM
- TGI (OVCAR-5 ovarian): > 100 µM
- TGI (A498 renal): 38.7 µM
- TGI (MDA-MB-231 breast): > 100 µM
- TGI (HCT-116 colon): > 100 µM
- TGI (NCI/ADR-RES ovarian): > 100 µM
- TGI (DU-145 prostate): > 100 µM
- TGI (SN12C renal): > 100 µM

SMILES: N=C1/C(=C/c2ccccc2)C(=O)N=C2SC=NN12
- TGI (UACC-257 melanoma): > 100 µM
- TGI (SW-620 colon): > 100 µM
- TGI (MDA-N): > 100 µM
- TGI (KM12 colon): > 100 µM
- TGI (OVCAR-5 ovarian): > 100 µM
- TGI (MDA-MB-231 breast): > 100 µM
- TGI (HCT-116 colon): > 100 µM
- TGI (NCI/ADR-RES ovarian): > 100 µM
- TGI (PC-3 prostate): > 100 µM
- TGI (DU-145 prostate): > 100 µM
- TGI (SN12C renal): > 100 µM

SMILES: COc1ccc(N2C(=O)C(C#N)=C(SC)C(C#N)C2=O)cc1 (stereo not given)
- TGI (UACC-257 melanoma): > 100 µM
- TGI (SW-620 colon): > 100 µM
- TGI (MDA-N): > 100 µM
- TGI (KM12 colon): > 100 µM
- TGI (OVCAR-5 ovarian): > 100 µM
- TGI (A498 renal): > 100 µM
- TGI (MDA-MB-231 breast): > 100 µM
- TGI (HCT-116 colon): > 100 µM
- TGI (NCI/ADR-RES ovarian): > 100 µM
- TGI (PC-3 prostate): > 100 µM
- TGI (SN12C renal): > 100 µM

SMILES: CC1=C(S(=O)c2ccc(C)cc2)CCC2(CCCCO2)O1 (stereo not given)
- TGI (UACC-257 melanoma): > 100 µM
- TGI (SW-620 colon): > 100 µM
- TGI (KM12 colon): > 100 µM
- TGI (OVCAR-5 ovarian): > 100 µM
- TGI (A498 renal): > 100 µM
- TGI (MDA-MB-231 breast): > 100 µM
- TGI (HCT-116 colon): > 100 µM
- TGI (NCI/ADR-RES ovarian): > 100 µM
- TGI (PC-3 prostate): > 100 µM
- TGI (DU-145 prostate): > 100 µM
- TGI (SN12C renal): > 100 µM

SMILES: CC1(Br)S(=O)(=O)OCCOS1(=O)=O
- TGI (UACC-257 melanoma): > 100 µM
- TGI (SW-620 colon): > 100 µM
- TGI (OVCAR-5 ovarian): > 100 µM
- TGI (A498 renal): > 100 µM
- TGI (HCT-116 colon): > 100 µM
- TGI (SN12C renal): > 100 µM

SMILES: O=C1CCCC(=O)N1n1c(Cc2ccc(Cl)cc2)n[nH]c1=O
- TGI (UACC-257 melanoma): > 100 µM
- TGI (SW-620 colon): > 100 µM
- TGI (MDA-N): > 100 µM
- TGI (KM12 colon): > 100 µM
- TGI (OVCAR-5 ovarian): > 100 µM
- TGI (MDA-MB-231 breast): > 100 µM
- TGI (HCT-116 colon): > 100 µM
- TGI (NCI/ADR-RES ovarian): > 100 µM
- TGI (PC-3 prostate): > 100 µM
- TGI (DU-145 prostate): > 100 µM
- TGI (SN12C renal): > 100 µM

SMILES: c1ccc(CNCCCNCCCCNCCCNCc2ccccc2)cc1
- TGI (UACC-257 melanoma): 31.1 µM
- TGI (SW-620 colon): 9.13 µM
- TGI (MDA-N): 4.13 µM
- TGI (KM12 colon): 21 µM
- TGI (OVCAR-5 ovarian): 16.2 µM
- TGI (MDA-MB-231 breast): 22.1 µM
- TGI (HCT-116 colon): 14.4 µM
- TGI (NCI/ADR-RES ovarian): > 100 µM
- TGI (PC-3 prostate): 11.2 µM
- TGI (DU-145 prostate): 25.4 µM
- TGI (SN12C renal): 15.5 µM

SMILES: C=CC(Br)(CBr)CCC(Br)C(C)(C)Br (stereo not given)
- TGI (UACC-257 melanoma): 27.6 µM
- TGI (SW-620 colon): 26.6 µM
- TGI (KM12 colon): 22.3 µM
- TGI (OVCAR-5 ovarian): 33.2 µM
- TGI (HCT-116 colon): 28.3 µM
- TGI (SN12C renal): 29.7 µM

SMILES: N#Cc1c(N)nc2c(N=Nc3ccccc3)c(N)nn2c1Nc1ccccc1
- TGI (UACC-257 melanoma): 38.9 µM
- TGI (SW-620 colon): 50.3 µM
- TGI (MDA-N): 38.5 µM
- TGI (KM12 colon): 18.1 µM
- TGI (OVCAR-5 ovarian): 57.7 µM
- TGI (A498 renal): 59.1 µM
- TGI (MDA-MB-231 breast): 47.6 µM
- TGI (HCT-116 colon): 27 µM
- TGI (NCI/ADR-RES ovarian): 53.9 µM
- TGI (DU-145 prostate): 39.8 µM
- TGI (SN12C renal): 27.7 µM

— PubChem BioAssay (NCI)
